Tests used:
Type in all cases: in vitro ADME
UGT1A9 = target: T1, UGT1A9 (Homo sapiens, UniProt O60656); assay: UGT screening, cDNA-expressed UGT1A9
T1 construct: purchased Corning Life Sciences
T1 sequence (O60656 26-530): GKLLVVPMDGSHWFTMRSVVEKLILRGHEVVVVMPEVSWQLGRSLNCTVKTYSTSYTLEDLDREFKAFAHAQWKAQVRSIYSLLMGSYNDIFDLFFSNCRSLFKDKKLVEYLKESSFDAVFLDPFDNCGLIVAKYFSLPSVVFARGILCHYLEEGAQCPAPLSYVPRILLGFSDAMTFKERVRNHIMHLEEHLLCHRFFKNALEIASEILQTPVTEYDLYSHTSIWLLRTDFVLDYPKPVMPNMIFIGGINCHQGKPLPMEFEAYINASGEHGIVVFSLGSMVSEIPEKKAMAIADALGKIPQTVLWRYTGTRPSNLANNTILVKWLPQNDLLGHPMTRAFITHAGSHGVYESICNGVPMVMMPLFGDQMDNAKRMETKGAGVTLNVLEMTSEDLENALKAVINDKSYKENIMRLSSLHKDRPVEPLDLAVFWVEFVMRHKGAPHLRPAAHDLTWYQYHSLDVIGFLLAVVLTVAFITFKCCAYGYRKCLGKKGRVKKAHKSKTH
Experimental: To screen for UGT enzymes responsible for glucuronidation of DWP16001, 100 μL of reaction mixtures containing 13 human cDNA-expressed UGT enzymes (1A1, 1A3, 1A4, 1A6, 1A7, 1A8, 1A9, 1A10, 2B4, 2B7, 2B10, 2B15, and 2B17) at 0.1 mg protein/mL, 5 mM UDPGA, 0.025 mg/mL alamethicin, and 25 μM DWP16001 or M1 in 50 mM Tris buffer (pH 7.4) were incubated at 37 °C for 30 min in triplicate. Reactions were stopped by adding 100 μL of ketoconazole (internal standard, 200 ng/mL) in acetonitrile, followed by vortex-mixing and centrifugation (15,000× g, 8 min, 4 °C). The supernatant (75 μL) was diluted with equal volume of 30% acetonitrile and aliquots (5 μL) were injected into an LC-MS/MS system.

human liver microsomes = assay: Enzyme kinetics of metabolite formation in human liver microsomes
Experimental: To calculate the enzyme kinetic parameters for the M1 and M2 formation from DWP16001, DWP16001 (final concentrations, 1–200 μM) was incubated with NADPH-generating system, pooled human liver microsomes (0.25 mg/mL), or human cDNA-expressed CYP3A4 or CYP2C19 supersomes (10 pmol) at 37 °C for 30 min in triplicate. Reactions were stopped by addition of 400 μL of ice-cold ketoconazole (200 ng/mL) in acetonitrile. Following vortex-mixing and centrifugation (15,000× g, 8 min, 4 °C), 75 μL aliquots of the supernatant were diluted with 75 µL of 30% acetonitrile; 5 μL aliquots were injected into an LC−MS/MS system.
Apparent kinetic parameters (Km, Vmax and n) for the formation of M1, M2, and M3 from DWP16001 by human liver microsomes, CYP3A4, or CYP2C19 were calculated as follows: the unweighted formation rates of M1, M2, and M3 over a range of DWP16001 concentrations were fitted to the Hill equation model [V = Vmax × S^n/(Km^n + S^n)] or the single enzyme model [V = Vmax × S/(Km + S)] using Enzyme Kinetics software (version 1.1 SPSS Inc., Chicago, IL, USA). In the above equations, V means the reaction velocity of the formation of M1, M2, and M3 at given concentration [S] of DWP16001, Vmax means the maximum reaction velocity, n means the Hill constant, and Km means the DWP16001 concentration at which the reaction velocity is 50% of Vmax.

[1] = Metabolic stability in dog hepatocytes; details: pooled cryopreserved hepatocytes, dog hepatocytes
Experimental: (§1) To evaluate the metabolic stability of DWP16001 in human, dog, monkey, mouse, and rat hepatocytes, pooled cryopreserved hepatocytes were carefully thawed in recovery medium and resuspended in incubation medium (Krebs–Henseleit buffer for mouse, rat, and human; William’s E media for dog and monkey) to 0.5 × 10^6 cells/mL for mouse, 0.67 × 10^6 cells/mL for rat, and 1.0 × 10^6 cells/mL for dog, monkey, and human in accordance with the manufacturer’s protocols. Then, 60-μL aliquots of these hepatocyte suspensions and an equal volume of 2 μM DWP16001 in incubation medium were mixed in 96-well plates and incubated in triplicate for 0, 30, 60, 90, 120, 180, or 240 min in a CO2 incubator at 37 °C. Reactions were stopped by addition of 120 µL of ice-cold acetonitrile to each well and the cell suspension was sonicated for 5 min at 4 °C, followed by centrifugation at 15,000× g for 10 min at 4 °C after 5 min of sonication. 80-µL aliquots of the supernatants were then vortex-mixed with 20 μL of ice-cold ketoconazole (an internal standard) in acetonitrile and analyzed by LC–tandem mass spectrometry (LC-MS/MS). The peak area ratios of DWP16001 versus internal standard at each sampling point were used for the subsequent calculation. Elimination parameters, including half-life (t1/2), intrinsic clearance (Clint), and hepatic clearance (Clhep) of DWP16001 in mouse, rat, dog, monkey, and human were calculated by the following equations [19]. (1) t1/2min=ln2/−k elimination slope (2) ClintmL/min/kg=ln2/t1/2×mL incubation/hepatocytes 10^6 cells×B×10^6 cells/g liver×A g liver/kg BW (3) ClhepmL/min/kg=Qh×Clint/Qh+Clint (4) Hepatic extraction ratio = Clhep/Qh
(§2) Here, A has values of 87.5, 40, 32, 32, and 25.7; B has values of 135, 117, 215, 120, and 139; Qh (representing hepatic blood flow) has values of 90, 55.2, 30.9, 43.4, and 20.7 mL/min/kg, for mouse, rat, dog, monkey, and human, respectively. Hepatic extraction ratio values of ≤ 0.25, 0.25–0.75, and ≥ 0.75 were regarded as low, moderate, and high, respectively.

dog hepatocytes = assay: Metabolic stability in dog hepatocytes
Experimental: as §1, §2

SMILES: OC[C@H]1O[C@@H](c2cc(Cc3ccc(C4CC4)cc3)c(Cl)c3c2CCO3)[C@H](O)[C@@H](O)[C@@H]1O [DWP16001, (2S,3R,4R,5S,6R)-2-(7-chloro-6-(4-cyclopropylbenzyl)-2,3-dihydrobenzofuran-4-yl)-6-(hydroxymethyl)tetrahydro-2H-pyran-3,4,5-triol]
- Substrate of UGT1A9 (UGT1A9): substrate
- M1 Formation Vmax (human liver microsomes; HLM): 980.3 pmol/min/mg protein
- M1 Formation n (hill coefficient) (human liver microsomes; HLM): 0.9176
- M2 Formation Vmax (human liver microsomes; HLM): 82.8 pmol/min/mg protein
- M2 Formation n (hill coefficient) (human liver microsomes; HLM): 0.9773
- M1 Formation Mode (human liver microsomes; HLM, kinetic model fitted): Hill
- M2 Formation Mode (human liver microsomes; HLM, kinetic model fitted): Hill
- M3 formation from DWP16001 in enzyme kinetic analysis (human liver microsomes; human liver microsomes): not detected
- CLint scaled at 1 μM [1]: 42.7 mL/min/kg
- half-life at 1 μM ([1]; 37 °C, 0-240 min): 3.73 h
- Hepatic extraction ratio class (dog hepatocytes; dog): moderate (0.25–0.75)
- Clhep (dog hepatocytes; dog hepatocytes, well-stirred model): 17.9 mL/min/kg

Source: article PMC7558535, “In Vitro Metabolism of DWP16001, a Novel Sodium-Glucose Cotransporter 2 Inhibitor, in Human and Animal Hepatocytes” (Pharmaceutics, 2020)
